Laboratory results from patent US20200216837A1, “DRUG-TARGET IDENTIFICATION BY RAPID SELECTION OF DRUG RESISTANCE MUTATIONS” (KATHOLIEKE UNIVERSITEIT LEUVEN, priority 2016, published 2020).

Columns and labels:
HAP1 cells = assay: Cell viability assay of wild-type versus mutagenized drug-resistant cells; format: cell-based, human; settings: for Drug sensitivity of HDR-edited cells carrying NAMPT mutations: NAMPT mutations reinstalled in native locus of parental cells by CRISPR-induced HDR; for Drug sensitivity of surviving colonies after tiling library transduction and drug selection: HAP1 Cas9 cells, FDA_target subpool B with bortezomib 14 days, or investigational library D with KPT-9274; for Drug sensitivity of colonies after Cas9/sgRNA targeting of the resistance hot spot: HAP1 cells, sgRNAs at XPO1 C528, KIF11 D130/A133, ERCC3 S162/Y163, NHEJ repair, 4 drug concentrations for selection; for Drug sensitivity of parental cells with a major protein variant reinstalled by CRISPR/Cas9-mediated HDR: XPO1 C528S,E529V,Q530H,K531I, KIF11 L132del, ERCC3 V166_K167insL in native locus
Experimental: Cells were transfected with the Neon Electroporation System after resuspension in Buffer R. DNA plasmids expressing the spCas9 or asCpf1 endonuclease and guiding RNA were added to a concentration of 37.5 ng/μL per plasmid and electroporated at 1,400-1,475V with 3 pulses of 10 ms. Two to three days after transfection, cells were treated with the respective drug to select for resistance over 7-14 days. Colonies were imaged with an IncuCyte© ZOOM (Essen Bioscience).
For HDR, a 123-134 bases long ssDNA oligonucleotide (850 ng) was added to the electroporation mixture in addition to the respective sgRNA and spCas9 expressing plasmids. Two days after electroporation, cells were treated with respective drugs for 5 days before imaging with an IncuCyte© ZOOM (Essen Bioscience). Following imaging, the HDR-template transfected cells were grown under drug selection for an additional week before any further experiments were performed.
Cell viability assays were performed by plating 3,000 HAP1, 5,000 HCT 116 or HL-60 cells in 96-well plates containing DMSO or a dilution of the test compound. Cells were incubated for 72 hours at 37° C. and 5% CO2. Cell viability was then assessed with the CellTiter 96® AQueous Non-Radioactive Cell Proliferation Assay (Promega) and colorimetric signals were measured with a Safire2™ (TECAN). Assays were performed in triplicate and each experiment was repeated at least once. Obtained values were adjusted with the background signal and divided by the DMSO control. Relative data values were then visualized and analyzed using a log-based 4 parameter model (GraphPad Prism).
For single guide drug resistance validation assays, 125.000 cells were transfected with Cas9 and the individual sgRNAs using the Neon Electroporation system as described above and plated into 6-well plates. Cells were treated 2-3 days after transfection with the respective compound for a period of 5-7 days, the medium was regularly refreshed and dead cells were washed away before imaging confluency using a live cell analysis system (Essen Bioscience, IncuCyte ZOOM®).

[1] = tested on: HAP1 cells stably expressing spCas9 or asCpf1; assay: CRISPR mutagenesis scanning drug-target identification screen with tiling sgRNA/crRNA libraries; format: cell-based, human; settings: 30 nM bortezomib, 300 nM KPT-9274 or 2 μM selinexor for 2 weeks
Experimental: FastQ files obtained after MiSeq sequencing were demultiplexed with the MiSeq Reporter software (Illumina). Demultiplexed and paired reads were trimmed, filtered and then aligned to the reference amplicon in Geneious (v9, Biomatters). To obtain haplotypes present in drug-resistant samples, bam files were analyzed with the CrispRVariants package run in RStudio by defining a 35-50 bp spanning region across the endonuclease cut site, as defined by pre-analysis of localized variants within Geneious. For this purpose, the CrispRVariants “readtotarget” input was run with parameters “upstream.snv” (30) and “downstream.snv” (15) on corresponding paired end sequencing reads to allow for haplotype determination. Haplotype nucleotide sequences were extracted with a small script. Nucleotide sequences were then visualized and mapped to the reference in Geneious v9 (Biomatters) and amino acid variants were determined. For visualization of the spectra of single nucleotide variants, NGS reads were aligned to the reference gene. Nucleotide occurrence frequencies were then determined in R on the aligned NGS reads using the deep SNV Bioconductor package. Sequences containing sgRNA/crRNAs from the lentiviral screens were trimmed from adapter sequences. Individual sgRNA/crRNA sequencing reads were then aligned to the pLCKO-U6-sgRNA vector within Geneious, counted with MaGeCK^18 and visualized in GraphPad Prism.
HAP1 cells stably expressing spCas9 or asCpf1 were resuspended in supplemented IMDM containing 8 μg/mL polybrene and transduced with lentiviral particles containing the desired sgRNA/crRNAs at a MOI of 0.25 (coverage of 5,000× per sgRNA for spCas9) or 0.35 (coverage of 15,000× per crRNA for asCpf1) by spinfection in 12-well plates. The next day cells were transferred to T150 cell flasks and selected with 1 μg/mL puromycin. Then 4 million (ispinesib/selinexor) or 10 million (KPT-9274/bortezomib) cells were harvested for DNA extraction and the remaining cells were treated for a period of 2 weeks with 8 nM ispinesib, 30 nM bortezomib, 300 nM KPT-9274 or 2 μM selinexor. […]

Compound	Drug sensitivity of HDR-edited cells carrying NAMPT mutations (HAP1 cells)	Drug sensitivity of the original KPT-9274 resistant cell pool (HAP1 cells; cell pool surviving the library D mutagenesis screen with KPT-9274, compared to wild-type)	Drug sensitivity of surviving colonies after tiling library transduction and drug selection (HAP1 cells)	Target gene identified by enriched guide RNAs and resistance mutations [1]	Drug sensitivity of colonies after Cas9/sgRNA targeting of the resistance hot spot (HAP1 cells)	Drug sensitivity of parental cells with a major protein variant reinstalled by CRISPR/Cas9-mediated HDR (HAP1 cells)	Drug sensitivity of colonies after AsCpf1 tiling crRNA library and drug selection (HAP1 cells; HAP1 AsCpf1 cells, 10 genes, 1,100 crRNAs, selinexor 2 μM)
O=C(/C=C/c1cccnc1)NCCCCC1CCN(C(=O)c2ccccc2)CC1 [FK866]	cross-resistant	cross-resistant	–	–	–	–	–
Nc1ccc(/C=C/C(=O)NCc2cc3cc(-c4ccc(C(=O)N5CCC(F)(F)CC5)cc4)cc(-c4ccc(F)cc4)c3o2)cn1 [KPT-9274]	resistant	–	resistant	NAMPT	–	–	–
CC(C)C[C@H](NC(=O)[C@H](Cc1ccccc1)NC(=O)c1cnccn1)B(O)O [bortezomib]	–	–	resistant	PSMB5	–	–	–
Cc1ccc(C(=O)N(CCCN)[C@@H](c2nc3cc(Cl)ccc3c(=O)n2Cc2ccccc2)C(C)C)cc1 [ispinesib]	–	–	–	–	resistant	resistant	–
O=C(/C=C\n1cnc(-c2cc(C(F)(F)F)cc(C(F)(F)F)c2)n1)NNc1cnccn1 [selinexor]	–	–	–	XPO1	resistant	resistant	resistant
CC(C)[C@]12O[C@H]1[C@@H]1O[C@]13[C@]1(O[C@H]1C[C@H]1C4=C(CC[C@@]13C)C(=O)OC4)[C@@H]2O [triptolide]	–	–	–	–	resistant	resistant	–
